In patent US12569448B2, “Membrane-based two component therapeutic gas release system for oral administration” (Julius-Maximilians-Universitaet Wuerzburg, priority 2019, dated 2026):

Test: CO release rates from free CORM and OCORS systems
Type: physicochemical
Protocol: This example illustrates the influence of the wall thickness of the silicone membrane on the release rate of the therapeutic gas.
The trigger compounds FeCl3 and Na2SO3 were used in aqueous solution and in molar excess amounts relative to the CORM.
In Table 1, Cmax describes the highest value measured for the therapeutic gas concentration. Tmax is the time, at which this value was measured. 090% describes 90% of Cmax, and T90% is the time point, at which 90% of Cmax were released. For the free metal carbonyl, a different release vessel was used than for the CO releasing systems, and therefore, the absolute values for Cmax differ.

[1] = trigger in aqueous solution in molar excess

C90% (90% of Cmax) (free carbonyl measured in a different release vessel): 576.7 ppm | Cmax (highest value measured for the therapeutic gas concentration) (trigger in aqueous solution in molar excess, free carbonyl measured in a different release vessel than the OCORS systems): 640.8 ppm
Structure (SMILES): [C-]#[N+]CC(=O)O.[C-]#[N+]CC(=O)O.[C-]#[N+]CC(=O)O.[C-]#[O+].[C-]#[O+].[C-]#[O+].[Mo] [Entry 1, Mo(CO)3(CNCH2CO2H)3]
T90% (time point at which 90% of Cmax were released) [1]: 17 min | Tmax (time at which Cmax was measured) [1]: 44 min
